Measured values reported in PubChem BioAssay AID212 (DTP/NCI, 2004).
Several values for one entry are separate records, joined by “and”; a condition that tells them apart may be missing. Identical values can stand only once. Results filed as inconclusive are left out.

Test system: BDF1 mice, colon carcinoma 38 sc, T/C %
Experiment: NCI In Vivo Anticancer Drug Screen. Data for tumor model Colon Carcinoma 38 (subcutaneous) in B6D2F1 (BDF1) mice
Conditions: endpoint: median tumor weight (est.), higher = larger tumour
Outline: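 Transplantable tumor in mice; compound-treated vs vehicle-dosed controls. Measured survival or tumor size; value = T ÷ C.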

[1] = dose: 25.0 mg/kg/injection, schedule: Q07DX002 (ip), vehicle: saline with Tween-80
[2] = dose: 50.0 mg/kg/injection, schedule: Q07DX002 (ip), vehicle: saline with Tween-80
[3] = dose: 100.0 mg/kg/injection, schedule: Q07DX002 (ip), vehicle: saline with Tween-80
[4] = dose: 200.0 mg/kg/injection, schedule: Q07DX002 (ip), vehicle: saline with Tween-80
[5] = dose: 400.0 mg/kg/injection, schedule: Q07DX002 (ip), vehicle: saline with Tween-80
[6] = dose: 200.0 mg/kg/injection, schedule: Q07DX002 (ip), vehicle: saline
[7] = dose: 800.0 mg/kg/injection, schedule: Q07DX002 (ip), vehicle: saline
[8] = dose: 12.5 mg/kg/injection, schedule: Q07DX002 (ip), vehicle: saline
[9] = dose: 50.0 mg/kg/injection, schedule: Q07DX002 (ip), vehicle: saline

SMILES: CNC(=O)O/N=C(\CN=[N+]=[N-])C(C)(C)C
- T/C (dose: 1.0 mg/kg/injection, schedule: Q07DX002 (ip), vehicle: saline): 103 % of control

SMILES: OC1(CSc2ccccc2)CCCCC1
- T/C [1]: 93 % of control
- T/C [2]: 47 % of control
- T/C [3]: 97 % of control
- T/C [4]: 87 % of control
- T/C [5]: 77 % of control

SMILES: O=c1n(CC2CO2)c(=O)n(CC2CO2)c(=O)n1CC1CO1 (stereo unspecified)
- T/C (dose: 12.0 mg/kg/injection, schedule: Q07DX002 (ip), vehicle: saline with Tween-80): 121 % of control
- T/C (dose: 12.5 mg/kg/injection, schedule: Q07DX002 (ip), vehicle: saline with Tween-80): 170 % of control
- T/C (dose: 12.5 mg/kg/injection, schedule: Q07DX002 (ip), vehicle: suspension in saline): 101 % of control and 88 % of control and 89 % of control
- T/C (dose: 25.0 mg/kg/injection, schedule: Q07DX003 (ip), vehicle: saline): 43 % of control
- T/C [2]: 119 % of control and 102 % of control
- T/C (dose: 50.0 mg/kg/injection, schedule: Q07DX002 (ip), vehicle: suspension in saline): 66 % of control and 42 % of control and 62 % of control
- T/C (dose: 50.0 mg/kg/injection, schedule: Q07DX003 (ip), vehicle: saline): 36 % of control
- T/C [3]: 42 % of control and 65 % of control
- T/C (dose: 100.0 mg/kg/injection, schedule: Q07DX002 (ip), vehicle: suspension in saline): 81 % of control
- T/C (dose: 200.0 mg/kg/injection, schedule: Q07DX002 (ip), vehicle: suspension in saline): 81 % of control

SMILES: Cc1ccccc1N(CC1CO1)CC1CO1 (stereo unspecified)
- T/C [1]: 81 % of control
- T/C [2]: 104 % of control
- T/C [3]: 57 % of control
- T/C [4]: 123 % of control
- T/C [6]: 154 % of control
- T/C [7]: 89 % of control

SMILES: Nc1ncnc2c1nnn2C1OC(CO)C(O)C1O (stereo unspecified)
- T/C (dose: 400.0 mg/kg/injection, schedule: Q07DX002 (ip), vehicle: Klucel (hydroxypropylcellulose) (HPC)): 45 % of control

SMILES: Nc1ccn([C@@H](C=O)O[C@@H](C=O)CO)c(=O)n1
- T/C [8]: 99 % of control
- T/C (dose: 25.0 mg/kg/injection, schedule: Q07DX002 (ip), vehicle: saline): 71 % of control
- T/C [9]: 58 % of control
- T/C (dose: 100.0 mg/kg/injection, schedule: Q07DX002 (ip), vehicle: saline): 86 % of control
- T/C [6]: 73 % of control

SMILES: COC1OC(CO)C(O)C(NC(=O)N(C)N=O)C1O (stereo unspecified)
- T/C [8]: 113 % of control
- T/C [9]: 95 % of control and 102 % of control
- T/C [7]: 2 % of control and 9 % of control

SMILES: C[C@]12CC[C@@H]3c4ccc(OC(=O)Cc5ccc(N(CCCl)CCCl)cc5)cc4CC[C@H]3[C@@H]1CC[C@@H]2OC(=O)Cc1ccc(N(CCCl)CCCl)cc1
- T/C [2]: 185 % of control
- T/C [3]: 176 % of control
- T/C [4]: 173 % of control and 201 % of control
- T/C [5]: 256 % of control
- T/C (dose: 800.0 mg/kg/injection, schedule: Q07DX002 (ip), vehicle: saline with Tween-80): 195 % of control

SMILES: c1ccc2c(NCCCCCCNc3c4ccccc4nc4ccccc34)c3ccccc3nc2c1
- T/C (dose: 1.25 mg/kg/injection, schedule: Q07DX002 (ip), vehicle: Klucel (hydroxypropylcellulose) (HPC)): 109 % of control and 95 % of control
- T/C (dose: 2.5 mg/kg/injection, schedule: Q07DX002 (ip), vehicle: Klucel (hydroxypropylcellulose) (HPC)): 122 % of control and 97 % of control
- T/C (dose: 5.0 mg/kg/injection, schedule: Q07DX002 (ip), vehicle: Klucel (hydroxypropylcellulose) (HPC)): 70 % of control
- T/C (dose: 20.0 mg/kg/injection, schedule: Q07DX002 (ip), vehicle: Klucel (hydroxypropylcellulose) (HPC)): 70 % of control and 76 % of control
- T/C (dose: 40.0 mg/kg/injection, schedule: Q07DX002 (ip), vehicle: Klucel (hydroxypropylcellulose) (HPC)): 72 % of control
